The results in this text go back to ChEMBL document CHEMBL3886376, “Bicyclic pyridazine compounds as Pim inhibitors” (2015).

Structures are written as SMILES.

For test [1], the target named is Serine/threonine-protein kinase pim-2 (Homo sapiens, UniProt Q9P1W9). In words: (§1) PIM Enzyme Assay: The assay for the determination of Pim activity is based on the formation of phosphorylated biotinylated-BAD peptide at the Serine 112 residue (S112) and employs HTRF (homogeneous time resolved fluorescence) technology to detect the product in a 96-well plate format. The phosphorylation of biotinylated-BAD (S112) peptide by full length recombinant Pim-1, Pim-2, or Pim-3 protein was detected with streptavidin:Allophycocyanin (APC) conjugate and a europium (Eu) labeled antibody directed against phosphorylated-BAD (S112). Excitation of Eu by a high energy laser light (337 nm) leads to a transfer of energy to the APC molecule, and results in an emission at 665 nm. The fluorescence is directly proportional to the amount of phosphorylated BAD peptide present in the reaction.Compounds were prepared in DMSO by conducting 3-fold serial dilutions to give a 10-point dosing curve having a high dose of 1 uM. A reference compound was included on each assay plate in order to validate that plate. On the technique in general: TR-FRET usually uses a lanthanide donor and a delayed reading to cut background.

For test [2], the target named is Serine/threonine-protein kinase pim-1 (Homo sapiens, UniProt P11309). Described as §1.

The IC50 is the point on the concentration scale where inhibition reaches its midpoint. For `N[C@H]1CCC[C@@H](c2ccncc2Nc2ncc3ccc(-c4c(F)cccc4F)nn23)C1` (mixture of isomers), the IC50 in test [1] is 27 nM; in test [2], 4 nM.
